Results from patent publication US20200079765A1, “SUBSTITUTED HETEROARYL PYRROLONES AND SALTS THEREOF AND USE THEREOF AS HERBICIDAL ACTIVE SUBSTANCES” (Bayer CropScience Aktiengesellschaft, priority 2016, published 2020).

Legend:
photosystem II (PS II) = target: T1, photosystem II (PS II) (Spinacia oleracea, UniProt P69560); assay: Measurement of the PS II activity in thylakoid membranes (DCPIP reduction, Experimental Part 3, Table E1); type: biochemical; conditions: spinach thylakoid membranes
T1 construct: the chloroplasts were osmotically ruptured and the thylakoid membranes were then obtained by centrifugation; from tissue; host or cells: thylakoid membranes from fresh spinach leaves
Description: Cooled fresh spinach leaves were comminuted and homogenized in 50 mM phosphate buffer, pH 6.8. 10 mM KCl, 0.34 M sucrose (sucrose buffer) (blender, 1 g of plant material/ml). The homogenate was subsequently filtered through 4 layers of Miracloth and the chloroplasts were isolated by centrifugation, i.e. 10 min of centrifugation at 4400×g (4° C.). The sediment was suspended in 25 ml of sucrose buffer and re-centrifuged for 10 min at 4400×g (4° C.). The sediment was then suspended in 40 ml of 50 mM phosphate buffer, pH 6.8, 10 mM KCl, without sucrose. In this step, the chloroplasts were osmotically ruptured and the thylakoid membranes were then obtained by centrifugation (10 min, 4400×g, 4° C.). The membrane sediment was finally suspended in about 20 ml of 50 mM phosphate buffer, pH 6.8, 10 mM KCl. Following protein determination and activity determination, the membrane suspension was divided into aliquots and frozen in liquid nitrogen. The aliquots were stored at −80° C. Under these conditions, the photosystem II preparation was storage stable for at least three months. The activity determination of photosystem II (PS II) was then carried out using the following test principle: The electron transfer from PS II to an artificial electron acceptor, 2,6-dichlorophenolindophenol (DCPIP), was measured with exposure to light. The concentration of the blue oxidized form of DCPIP was determined spectrophotometrically at wavelength λ=595 nm. […] The activity determination was carried out in microtiter plates (96 cavities) in a reaction volume of 200 μl. Here, 155 μl of dilute membrane suspension were initially charged in 50 mM of phosphate buffer, pH 6.8, 10 mM KCl. Depending on the activity of the PS II preparation, the dilution was adjusted such that the measurement of the decrease in absorption (λ=595 nm) was linear for at least 10 min. In each case 5 μl solution of the test compounds of a concentration of 100 μM in DMSO were added to the enzyme suspension; controls contained 5 μl DMSO; the final concentration of DMSO in the reaction batch was thus 2.5% (v/v); this concentration had no adverse effect on the enzymatic activity. On each microtiter plate, a known PS II inhibitor, for example metribuzin, was used as standard, which allowed the quality of the PS II test to be assessed. The reaction was started by addition of 40 μl DCPIP solution (600 μM in distilled water); the final concentration of DCPIP was 120 μM. Measurement of absorption was carried out over a period of 10 min at 22° C. and with exposure to light. Using metribuzin as comparative substance, the results for the efficacy of the compounds of the general formula (I) at 100 μM are stated in the table below using the following classification: ++++ (inhibition≥90%), +++ (90%>inhibition≥70%), ++ (70%>inhibition≥50%), + (50%>inhibition≥30%).
Effects of selected compounds of the general formula (I) according to the following table E1: […]

Lolium rigidum = assay: Herbicidal pre-emergence action (Experimental Part 2, D); type: in vivo; conditions: pre-emergence (Part 2), scored visually after about 3 weeks
Text: (§1) Seeds of mono- and dicotyledonous weed plants were placed in plastic pots in sandy loam soil (doubly sown with in each case one species of mono- or dicotyledonous weed plants per pot) and covered with soil. The compounds of the invention, formulated in the form of wettable powders (WP) or as emulsion concentrates (EC), were then applied onto the surface of the covering soil as aqueous suspension or emulsion with addition of 0.5% additive at a water application rate of 600 liters per hectare (converted). After the treatment, the pots are placed in a greenhouse and kept under good growth conditions for the trial plants. After about 3 weeks, the effect of the preparations was scored visually in comparison with untreated controls as percentages. For example, 100% activity=the plants have died, 0% activity=like control plants. Tables D1 to D8 below show the effects of selected compounds of the general formula (I) according to Tables I.1 to I.116 on various harmful plants and an application rate corresponding to 1280 g/ha or 320 g/ha, which were obtained by the experimental procedure mentioned above.

Amaranthus retroflexus [1] = assay: as above; type: in vivo; conditions: pre-emergence (Part 2), application rate 1280 g/ha, scored visually after about 3 weeks
Text: as §1

Stellaria media [2] = assay: as above; type: in vivo; conditions: pre-emergence (Part 2), scored visually after about 3 weeks
Text: as §1

Abutilon theophrasti [3] = assay: as above; type: in vivo; conditions: pre-emergence (Part 2), application rate 320 g/ha, scored visually after about 3 weeks
Text: as §1

Matricaria inodora [4] = assay: as above; type: in vivo; conditions: pre-emergence (Part 2), scored visually after about 3 weeks
Text: as §1

Poa annua [5] = assay: as above; type: in vivo; conditions: pre-emergence (Part 2), scored visually after about 3 weeks
Text: as §1

Echinochloa crus-galli [6] = assay: as above; type: in vivo; conditions: pre-emergence (Part 2), scored visually after about 3 weeks
Text: as §1

Setaria viridis [7] = assay: as above; type: in vivo; conditions: pre-emergence (Part 2), scored visually after about 3 weeks
Text: as §1

Amaranthus retroflexus [8] = assay: Herbicidal post-emergence action (Experimental Part 2, C); type: in vivo; conditions: post-emergence (Part 2), rated visually after about 3 weeks
Description: (§2) Seeds of mono- and dicotyledonous weed plants were placed in plastic pots in sandy loam soil (doubly sown with in each case one species of mono- or dicotyledonous weed plants per pot), covered with soil and cultivated in a greenhouse under controlled growth conditions. 2 to 3 weeks after sowing, the test plants were treated at the one-leaf stage. The compounds of the invention, formulated in the form of wettable powders (WP) or as emulsion concentrates (EC), were applied onto the green parts of the plants as aqueous suspension or emulsion with addition of 0.5% additive at a water application rate of 600 liters per hectare (converted). After the test plants had been kept in the greenhouse under optimum growth conditions for about 3 weeks, the activity of the preparations was rated visually in comparison to untreated controls. For example, 100% activity=the plants have died, 0% activity=like control plants. Tables C1 to C8 below show the effects of selected compounds of the general formula (I) according to Tables I.1 to I.116 on various harmful plants and an application rate corresponding to 1280 g/ha or 320 g/ha, which were obtained by the experimental procedure mentioned above.

Stellaria media [9] = assay: as above; type: in vivo; conditions: post-emergence (Part 2), rated visually after about 3 weeks
Description: as §2

Abutilon theophrasti [10] = assay: as above; type: in vivo; conditions: post-emergence (Part 2), rated visually after about 3 weeks
Description: as §2

Matricaria inodora [11] = assay: as above; type: in vivo; conditions: post-emergence (Part 2), rated visually after about 3 weeks
Description: as §2

Poa annua [12] = assay: as above; type: in vivo; conditions: post-emergence (Part 2), rated visually after about 3 weeks
Description: as §2

Echinochloa crus-galli [13] = assay: as above; type: in vivo; conditions: post-emergence (Part 2), application rate 1280 g/ha, rated visually after about 3 weeks
Description: as §2

Setaria viridis [14] = assay: as above; type: in vivo; conditions: post-emergence (Part 2), rated visually after about 3 weeks
Description: as §2

Effect (inhibition of PS II activity) (photosystem II (PS II)) | SMILES | Amaranthus retroflexus, herbicidal activity (Amaranthus retroflexus [1]) | Stellaria media, herbicidal activity (Stellaria media [2]; application rate 1280 g/ha) | Abutilon theophrasti, herbicidal activity (Abutilon theophrasti [3]) | Matricaria inodora, herbicidal activity (Matricaria inodora [4]; application rate 1280 g/ha) | Poa Annua, herbicidal activity (Poa annua [5]; application rate 1280 g/ha) | Setaria viridis, herbicidal activity (Setaria viridis [7]; application rate 320 g/ha) | Amaranthus retroflexus, herbicidal activity (Amaranthus retroflexus [8]; application rate 1280 g/ha) | Stellaria media, herbicidal activity (Stellaria media [9]; application rate 320 g/ha) | Matricaria inodora, herbicidal activity (Matricaria inodora [11]; application rate 320 g/ha) | Poa Annua, herbicidal activity (Poa annua [12]; application rate 1280 g/ha) | Echinochloa crus-galli, herbicidal activity (Echinochloa crus-galli [13]) | Setaria viridis, herbicidal activity (Setaria viridis [14]; application rate 1280 g/ha) | Stellaria media, herbicidal activity (Stellaria media [2]; application rate 320 g/ha) | Setaria viridis, herbicidal activity (Setaria viridis [7]; application rate 1280 g/ha) | Abutilon theophrasti, herbicidal activity (Abutilon theophrasti [10]; application rate 320 g/ha) | Poa Annua, herbicidal activity (Poa annua [12]; application rate 320 g/ha) | Lolium rigidum, herbicidal activity (Lolium rigidum; application rate 1280 g/ha) | Poa Annua, herbicidal activity (Poa annua [5]; application rate 320 g/ha) | also measured
++++ (inhibition≥90%) | CC1=CC(=O)N(c2noc(C(C)(C)C)c2C)C1O (stereo not drawn) [I.1-177] | 90% | 100% | 100% | 100% | 100% | 100% | 100% | 100% | 100% | 100% | 100% | 100% |  |  |  |  |  |  | Lolium rigidum, herbicidal activity (Lolium rigidum; application rate 320 g/ha): 90%; Echinochloa crus-galli, herbicidal activity (Echinochloa crus-galli [6]; application rate 1280 g/ha): 100%; Abutilon theophrasti, herbicidal activity (Abutilon theophrasti [10]; application rate 1280 g/ha): 100%
++++ (inhibition≥90%) | CC1=CC(=O)N(c2cc(C(F)(F)F)c(Cl)cn2)C1O (stereo not drawn) [I.1-451, 5-Hydroxy-4-methyl-1-(5-chloro-4-trifluoromethylpyridin-2-yl)-1,5-dihydro-2H-pyrrol-2-one] | 90% |  |  | 100% | 90% |  | 100% | 100% | 90% |  | 100% |  | 100% | 100% | 100% | 100% |  |  | 
+++ (90%>inhibition≥70%) | CC1=CC(=O)N(c2onc(C(C)(C)C)c2C)C1O (stereo not drawn) [I.1-300] | 90% |  | 100% |  |  |  |  | 100% | 100% |  | 100% |  | 100% | 100% | 100% | 100% | 90% | 90% | Matricaria inodora, herbicidal activity (Matricaria inodora [4]; application rate 320 g/ha): 100%; Echinochloa crus-galli, herbicidal activity (Echinochloa crus-galli [6]; application rate 320 g/ha): 100%; Amaranthus retroflexus, herbicidal activity (Amaranthus retroflexus [8]; application rate 320 g/ha): 100%; Setaria viridis, herbicidal activity (Setaria viridis [14]; application rate 320 g/ha): 100%
 | CCC(=O)OC1C(C)=CC(=O)N1c1cc(C(F)(F)F)c(Cl)cn1 (stereo not drawn) [I.5-451, 5-Ethylcarbonyloxy-4-methyl-1-(5-chloro-4-trifluoromethylpyridin-2-yl)-1,5-dihydro-2H-pyrrol-2-one] |  | 100% |  | 90% |  | 100% |  |  |  | 100% |  | 90% |  |  | 100% |  | 90% | 100% | Stellaria media, herbicidal activity (Stellaria media [9]; application rate 1280 g/ha): 100%; Matricaria inodora, herbicidal activity (Matricaria inodora [11]; application rate 1280 g/ha): 90%
